System: test plant species
Experiment: Post-emergent herbicidal activity test (greenhouse, foliar spray, visual growth reduction)
Assay type: in vivo
Settings: post-emergence, 336 h, ECHCG: barnyardgrass (Echinochloa crus-galli), 140 g ai/ha, 14 days after application, read-out: Visual Growth Reduction (%) 14 Days After Application, ECHCG
How it was run: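 Greenhouse plants at first–second true leaf stage sprayed overhead at 187 L/ha with compound in acetone/water/isopropanol/DMSO/crop oil/X-77 carrier; controls received solvent blank. Injury rated visually after 14 d on a 0–100% scale versus untreated and control plants, converted to growth reduction.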

| SMILES | pest or weed control at 140 g/ha [%] |
| --- | --- |
| COC(=O)c1nc(-c2ccc(OC)cc2)c(F)cc1Cl [F365, Methyl 3-chloro-5-fluoro-6-(4-methoxyphenyl) picolinate] | 0 to 29 |
| COC(=O)c1nc(-c2ccc3c(c2)C(F)(F)OC(F)(F)O3)ccc1Cl [F203, Methyl 3-chloro-6-(2,2,4,4-tetrafluoro-4H-benzo[d][1,3]dioxin-6-yl) picolinate] | 0 to 29 |
| COC(=O)c1nc(-c2cc3c(cc2Cl)OC(F)(F)O3)ncc1Cl [F232, Methyl 5-chloro-2-(6-chloro-2,2-difluorobenzo[d][1,3]dioxol-5-yl)pyrimidine-4-carboxylate] | 75 to 84 |

Same assay, conditions: post-emergence, 336 h, IPOHE: ivy-leaf morning glory (Ipomoea hederacea), 140 g ai/ha, 14 days after application, read-out: Visual Growth Reduction (%) 14 Days After Application, IPOHE

| SMILES | pest or weed control at 140 g/ha [%] |
| --- | --- |
| COC(=O)c1nc(-c2ccc(OC)cc2)c(F)cc1Cl [F365, Methyl 3-chloro-5-fluoro-6-(4-methoxyphenyl) picolinate] | 0 to 29 |
| COC(=O)c1nc(-c2ccc3c(c2)C(F)(F)OC(F)(F)O3)ccc1Cl [F203, Methyl 3-chloro-6-(2,2,4,4-tetrafluoro-4H-benzo[d][1,3]dioxin-6-yl) picolinate] | 30 to 44 |
| COC(=O)c1nc(-c2cc3c(cc2Cl)OC(F)(F)O3)ncc1Cl [F232, Methyl 5-chloro-2-(6-chloro-2,2-difluorobenzo[d][1,3]dioxol-5-yl)pyrimidine-4-carboxylate] | 95 to 100 |

Same assay, conditions: post-emergence, 336 h, KCHSC: kochia (Bassia scoparia), 140 g ai/ha, 14 days after application, read-out: Visual Growth Reduction (%) 14 Days After Application, KCHSC

| SMILES | pest or weed control at 140 g/ha [%] |
| --- | --- |
| COC(=O)c1nc(-c2ccc(OC)cc2)c(F)cc1Cl [F365, Methyl 3-chloro-5-fluoro-6-(4-methoxyphenyl) picolinate] | 0 to 29 |
| COC(=O)c1nc(-c2ccc3c(c2)C(F)(F)OC(F)(F)O3)ccc1Cl [F203, Methyl 3-chloro-6-(2,2,4,4-tetrafluoro-4H-benzo[d][1,3]dioxin-6-yl) picolinate] | 0 to 29 |
| COC(=O)c1nc(-c2cc3c(cc2Cl)OC(F)(F)O3)ncc1Cl [F232, Methyl 5-chloro-2-(6-chloro-2,2-difluorobenzo[d][1,3]dioxol-5-yl)pyrimidine-4-carboxylate] | 45 to 59 |

Same assay, conditions: post-emergence, 336 h, ORYSA: rice (Oryza sativa), 140 g ai/ha, 14 days after application, read-out: Visual Growth Reduction (%) 14 Days After Application, ORYSA

| SMILES | pest or weed control at 140 g/ha [%] |
| --- | --- |
| COC(=O)c1nc(-c2ccc(OC)cc2)c(F)cc1Cl [F365, Methyl 3-chloro-5-fluoro-6-(4-methoxyphenyl) picolinate] | 0 to 29 |
| COC(=O)c1nc(-c2ccc3c(c2)C(F)(F)OC(F)(F)O3)ccc1Cl [F203, Methyl 3-chloro-6-(2,2,4,4-tetrafluoro-4H-benzo[d][1,3]dioxin-6-yl) picolinate] | 0 to 29 |
| COC(=O)c1nc(-c2cc3c(cc2Cl)OC(F)(F)O3)ncc1Cl [F232, Methyl 5-chloro-2-(6-chloro-2,2-difluorobenzo[d][1,3]dioxol-5-yl)pyrimidine-4-carboxylate] | 0 to 29 |

Same assay, conditions: post-emergence, 336 h, SETFA: giant foxtail (Setaria faberi), 140 g ai/ha, 14 days after application, read-out: Visual Growth Reduction (%) 14 Days After Application, SETFA

| SMILES | pest or weed control at 140 g/ha [%] |
| --- | --- |
| COC(=O)c1nc(-c2ccc(OC)cc2)c(F)cc1Cl [F365, Methyl 3-chloro-5-fluoro-6-(4-methoxyphenyl) picolinate] | 0 to 29 |
| COC(=O)c1nc(-c2ccc3c(c2)C(F)(F)OC(F)(F)O3)ccc1Cl [F203, Methyl 3-chloro-6-(2,2,4,4-tetrafluoro-4H-benzo[d][1,3]dioxin-6-yl) picolinate] | 0 to 29 |
| COC(=O)c1nc(-c2cc3c(cc2Cl)OC(F)(F)O3)ncc1Cl [F232, Methyl 5-chloro-2-(6-chloro-2,2-difluorobenzo[d][1,3]dioxol-5-yl)pyrimidine-4-carboxylate] | 75 to 84 |

Same assay, conditions: post-emergence, 336 h, SORVU: grain sorghum (Sorghum vulgare), 140 g ai/ha, 14 days after application, read-out: Visual Growth Reduction (%) 14 Days After Application, SORVU

| SMILES | pest or weed control at 140 g/ha [%] |
| --- | --- |
| COC(=O)c1nc(-c2ccc(OC)cc2)c(F)cc1Cl [F365, Methyl 3-chloro-5-fluoro-6-(4-methoxyphenyl) picolinate] | 0 to 29 |
| COC(=O)c1nc(-c2ccc3c(c2)C(F)(F)OC(F)(F)O3)ccc1Cl [F203, Methyl 3-chloro-6-(2,2,4,4-tetrafluoro-4H-benzo[d][1,3]dioxin-6-yl) picolinate] | 0 to 29 |
| COC(=O)c1nc(-c2cc3c(cc2Cl)OC(F)(F)O3)ncc1Cl [F232, Methyl 5-chloro-2-(6-chloro-2,2-difluorobenzo[d][1,3]dioxol-5-yl)pyrimidine-4-carboxylate] | 85 to 94 |

Same assay, conditions: post-emergence, 336 h, STEME: common chickweed (Stellaria media), 140 g ai/ha, 14 days after application, read-out: Visual Growth Reduction (%) 14 Days After Application, STEME

| SMILES | pest or weed control at 140 g/ha [%] |
| --- | --- |
| COC(=O)c1nc(-c2ccc(OC)cc2)c(F)cc1Cl [F365, Methyl 3-chloro-5-fluoro-6-(4-methoxyphenyl) picolinate] | 0 to 29 |
| COC(=O)c1nc(-c2ccc3c(c2)C(F)(F)OC(F)(F)O3)ccc1Cl [F203, Methyl 3-chloro-6-(2,2,4,4-tetrafluoro-4H-benzo[d][1,3]dioxin-6-yl) picolinate] | 0 to 29 |
| COC(=O)c1nc(-c2cc3c(cc2Cl)OC(F)(F)O3)ncc1Cl [F232, Methyl 5-chloro-2-(6-chloro-2,2-difluorobenzo[d][1,3]dioxol-5-yl)pyrimidine-4-carboxylate] | 45 to 59 |

Same assay, conditions: post-emergence, 336 h, TRZAS: wheat, spring (Triticum aestivum), 140 g ai/ha, 14 days after application, read-out: Visual Growth Reduction (%) 14 Days After Application, TRZAS

| SMILES | pest or weed control at 140 g/ha [%] |
| --- | --- |
| COC(=O)c1nc(-c2ccc(OC)cc2)c(F)cc1Cl [F365, Methyl 3-chloro-5-fluoro-6-(4-methoxyphenyl) picolinate] | 0 to 29 |
| COC(=O)c1nc(-c2ccc3c(c2)C(F)(F)OC(F)(F)O3)ccc1Cl [F203, Methyl 3-chloro-6-(2,2,4,4-tetrafluoro-4H-benzo[d][1,3]dioxin-6-yl) picolinate] | 0 to 29 |
| COC(=O)c1nc(-c2cc3c(cc2Cl)OC(F)(F)O3)ncc1Cl [F232, Methyl 5-chloro-2-(6-chloro-2,2-difluorobenzo[d][1,3]dioxol-5-yl)pyrimidine-4-carboxylate] | 45 to 59 |

Same assay, conditions: post-emergence, 336 h, blackgrass (Alopecurus myosuroides), 14 Days After Application, 140 g ai/ha, read-out: Visual Growth Reduction (%) ALOMY

| SMILES | pest or weed control at 140 g/ha [%] |
| --- | --- |
| COC(=O)c1nc(-c2ccc(OC)cc2)c(F)cc1Cl [F365, Methyl 3-chloro-5-fluoro-6-(4-methoxyphenyl) picolinate] | 0 to 29 |
| COC(=O)c1nc(-c2ccc3c(c2)C(F)(F)OC(F)(F)O3)ccc1Cl [F203, Methyl 3-chloro-6-(2,2,4,4-tetrafluoro-4H-benzo[d][1,3]dioxin-6-yl) picolinate] | 0 to 29 |
| COC(=O)c1nc(-c2cc3c(cc2Cl)OC(F)(F)O3)ncc1Cl [F232, Methyl 5-chloro-2-(6-chloro-2,2-difluorobenzo[d][1,3]dioxol-5-yl)pyrimidine-4-carboxylate] | 0 to 29 |

Same assay, conditions: post-emergence, 336 h, canada thistle (Cirsium arvense), 14 Days After Application, 140 g ai/ha, read-out: Visual Growth Reduction (%) CIRAR

| SMILES | pest or weed control at 140 g/ha [%] |
| --- | --- |
| COC(=O)c1nc(-c2ccc(OC)cc2)c(F)cc1Cl [F365, Methyl 3-chloro-5-fluoro-6-(4-methoxyphenyl) picolinate] | 0 to 29 |
| COC(=O)c1nc(-c2ccc3c(c2)C(F)(F)OC(F)(F)O3)ccc1Cl [F203, Methyl 3-chloro-6-(2,2,4,4-tetrafluoro-4H-benzo[d][1,3]dioxin-6-yl) picolinate] | 0 to 29 |
| COC(=O)c1nc(-c2cc3c(cc2Cl)OC(F)(F)O3)ncc1Cl [F232, Methyl 5-chloro-2-(6-chloro-2,2-difluorobenzo[d][1,3]dioxol-5-yl)pyrimidine-4-carboxylate] | 85 to 94 |

Same assay, conditions: post-emergence, 336 h, crabgrass (Digitaria sanguinalis), 14 Days After Application, 140 g ai/ha, read-out: Visual Growth Reduction (%) DIGSA

| SMILES | pest or weed control at 140 g/ha [%] |
| --- | --- |
| COC(=O)c1nc(-c2ccc(OC)cc2)c(F)cc1Cl [F365, Methyl 3-chloro-5-fluoro-6-(4-methoxyphenyl) picolinate] | 0 to 29 |
| COC(=O)c1nc(-c2ccc3c(c2)C(F)(F)OC(F)(F)O3)ccc1Cl [F203, Methyl 3-chloro-6-(2,2,4,4-tetrafluoro-4H-benzo[d][1,3]dioxin-6-yl) picolinate] | 0 to 29 |
| COC(=O)c1nc(-c2cc3c(cc2Cl)OC(F)(F)O3)ncc1Cl [F232, Methyl 5-chloro-2-(6-chloro-2,2-difluorobenzo[d][1,3]dioxol-5-yl)pyrimidine-4-carboxylate] | 95 to 100 |

Same assay, conditions: post-emergence, 336 h, lambsquarters (Chenopodium album), 14 Days After Application, 140 g ai/ha, read-out: Visual Growth Reduction (%) CHEAL

| SMILES | pest or weed control at 140 g/ha [%] |
| --- | --- |
| COC(=O)c1nc(-c2ccc(OC)cc2)c(F)cc1Cl [F365, Methyl 3-chloro-5-fluoro-6-(4-methoxyphenyl) picolinate] | 0 to 29 |
| COC(=O)c1nc(-c2ccc3c(c2)C(F)(F)OC(F)(F)O3)ccc1Cl [F203, Methyl 3-chloro-6-(2,2,4,4-tetrafluoro-4H-benzo[d][1,3]dioxin-6-yl) picolinate] | 0 to 29 |
| COC(=O)c1nc(-c2cc3c(cc2Cl)OC(F)(F)O3)ncc1Cl [F232, Methyl 5-chloro-2-(6-chloro-2,2-difluorobenzo[d][1,3]dioxol-5-yl)pyrimidine-4-carboxylate] | 95 to 100 |

Same assay, conditions: post-emergence, 336 h, redroot pigweed (Amaranthus retroflexus), 14 Days After Application, 140 g ai/ha, read-out: Visual Growth Reduction (%) AMARE

| SMILES | pest or weed control at 140 g/ha [%] |
| --- | --- |
| COC(=O)c1nc(-c2ccc(OC)cc2)c(F)cc1Cl [F365, Methyl 3-chloro-5-fluoro-6-(4-methoxyphenyl) picolinate] | 0 to 29 |
| COC(=O)c1nc(-c2ccc3c(c2)C(F)(F)OC(F)(F)O3)ccc1Cl [F203, Methyl 3-chloro-6-(2,2,4,4-tetrafluoro-4H-benzo[d][1,3]dioxin-6-yl) picolinate] | 0 to 29 |
| COC(=O)c1nc(-c2cc3c(cc2Cl)OC(F)(F)O3)ncc1Cl [F232, Methyl 5-chloro-2-(6-chloro-2,2-difluorobenzo[d][1,3]dioxol-5-yl)pyrimidine-4-carboxylate] | 60 to 74 |

Same assay, conditions: post-emergence, 336 h, wild oat (Avena fatua), 14 Days After Application, 140 g ai/ha, read-out: Visual Growth Reduction (%) AVEFA

| SMILES | pest or weed control at 140 g/ha [%] |
| --- | --- |
| COC(=O)c1nc(-c2ccc(OC)cc2)c(F)cc1Cl [F365, Methyl 3-chloro-5-fluoro-6-(4-methoxyphenyl) picolinate] | 0 to 29 |
| COC(=O)c1nc(-c2ccc3c(c2)C(F)(F)OC(F)(F)O3)ccc1Cl [F203, Methyl 3-chloro-6-(2,2,4,4-tetrafluoro-4H-benzo[d][1,3]dioxin-6-yl) picolinate] | 0 to 29 |
| COC(=O)c1nc(-c2cc3c(cc2Cl)OC(F)(F)O3)ncc1Cl [F232, Methyl 5-chloro-2-(6-chloro-2,2-difluorobenzo[d][1,3]dioxol-5-yl)pyrimidine-4-carboxylate] | 0 to 29 |

Same assay, conditions: post-emergence, 336 h, yellow nutsedge (Cyperus esculentus), 14 Days After Application, 140 g ai/ha, read-out: Visual Growth Reduction (%) CYPES

| SMILES | pest or weed control at 140 g/ha [%] |
| --- | --- |
| COC(=O)c1nc(-c2ccc(OC)cc2)c(F)cc1Cl [F365, Methyl 3-chloro-5-fluoro-6-(4-methoxyphenyl) picolinate] | 0 to 29 |
| COC(=O)c1nc(-c2ccc3c(c2)C(F)(F)OC(F)(F)O3)ccc1Cl [F203, Methyl 3-chloro-6-(2,2,4,4-tetrafluoro-4H-benzo[d][1,3]dioxin-6-yl) picolinate] | 0 to 29 |
| COC(=O)c1nc(-c2cc3c(cc2Cl)OC(F)(F)O3)ncc1Cl [F232, Methyl 5-chloro-2-(6-chloro-2,2-difluorobenzo[d][1,3]dioxol-5-yl)pyrimidine-4-carboxylate] | 0 to 29 |

From patent US20230017045A1, “PYRIDINE AND PYRIMIDINE CARBOXYLATE HERBICIDES AND METHODS OF USE THEREOF” (Dow AgroSciences LLC, priority 2017, published 2023)
